In patent US20220380383A1, “NEUROPROTECTIVE PDI MODULATING SMALL MOLECULES AND METHODS OF USE THEREOF” (THE TRUSTEES OF COLUMBIA UNIVERSITY IN THE CITY OF NEW YORK, priority 2018, published 2022):
≈ marks a conversion by molar mass, not a printed value.

Key:
[1] = target: T1, human catalytic PDI A1 a domain (PDIa) (Homo sapiens, UniProt P07237); assay: Isothermal titration calorimetry (ITC) binding to PDIa; settings: Tables 5-13; NA = not active; read-out: Kd
T1 construct: made in house; host or cells: Escherichia coli BL21-Gold (DE3)
T1 sequence (P07237 18-134): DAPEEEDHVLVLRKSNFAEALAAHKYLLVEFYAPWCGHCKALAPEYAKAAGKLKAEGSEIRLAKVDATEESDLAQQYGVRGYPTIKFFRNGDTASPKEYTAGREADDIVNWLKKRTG

[2] = test system: PC12 mHTTQ103 cells; assay: Rescue of PC12 cells from mHTTQ103-induced cell death; assay type: cell-based, rat; settings: Tables 5-13, PC12 cells
[3] = target: T2, PDIa C56S mutant (PDI C39S) (Homo sapiens, UniProt P07237, C56S); assay: MALDI-TOF mass spectrometry with PDIa C56S mutant; assay type: binding
T2 construct: made in house; host or cells: E. coli
T2 sequence (P07237 18-134 C56S): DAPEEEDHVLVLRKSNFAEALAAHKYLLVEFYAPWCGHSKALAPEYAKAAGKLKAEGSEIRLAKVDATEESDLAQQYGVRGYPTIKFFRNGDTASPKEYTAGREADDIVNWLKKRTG
Excerpt: We also explored the feasibility of generating a crystal structure of PDI bound to one of these inhibitors for structure-based analog design. LOC14 is a reversible inhibitor of PDI and therefore may not remain bound to the protein in crystallization trays. To trap the LOC14-PDI complex, we generated a PDI C39S mutant that should not release the compound from PDI. To confirm this mechanism of binding, we performed MALDI-TOF mass-spectrometry experiments with PDI C39S in the presence and absence of LOC14 (FIG. 4). […] PDI C39S treated with LOC14 gave 4 peaks: main mass peak at 15,557 Da (change of +152 which corresponds to the bound benzoisothiazolone moiety to PDI C39S), a peak at 15,735 Da (corresponding to the benzoisothiazolone moiety bound to C39S-gluconoylated protein), a peak at 15,404 (the mass of unbound C39S protein), and a peak at 15,584 Da (the mass of unbound C39S-gluconoylated protein). […] The incomplete binding is most likely due to the presence of reducing agent in the buffer. […]
To confirm that binding of LOC14 to PDI is reversible, we pre-treated a C56S mutant, as before, with LOC14, BIT, or iodoacetamide, an irreversible modifier of cysteines. Once the PDI-inhibitor complexes were formed, we treated the samples with 2.7 mM DTT, a reducing agent, and analyzed the complex by MALDI-TOF.

[4] = Solubility (stock solvent); settings: Tables 5-13; solvent not given (DMSO in Table 1)
[5] = test system: ROS in PC12 mHTTQ103 cells; assay: CellROX Orange flow cytometry ROS assay; assay type: cell-based, rat; settings: 3 μM, 24 hours, mHTT-induced cells
Experimental: (§1) In FIG. 14B, cells were stained with 5 μM CeIIROX Orange dye to assay cellular ROS production. Representative data from one of three flow cytometry replicates are shown. In FIG. 14C, an aliquot from each sample was used for assessing viability, using Trypan blue dye on ViCell. […] Data are plotted as mean±SD with n=3.
(§2) One goal was to further understand why modulating PDI activity can be neuroprotective in AD and HD models. Previously, we saw that LOC14 alters PDI's redox state from the reduced to the oxidized conformation (Kaplan et al. 2015). In vivo, there are oxidoreductase enzymes, such as ERO1, that regulate PDI's redox states and, as a byproduct of the redox reaction, pass electrons to oxygen as a final electron acceptor, generating H2O2. We hypothesized that LOC14 might function in place of oxidoreductases such as ERO1, oxidizing PDI without generating H2O2 and that this decrease in ROS production is what is causing the neuroprotection in cells and neurons. […] Cells were then stained with the fluorescent ROS-sensitive dye, CeIIROX Orange, and ROS assayed by flow cytometry. Induced mHTT-expressing cells had elevated levels of ROS compared to cells not expressing mHTT (uninduced cells) and these ROS were decreased in cells treated with LOC14 (FIG. 14B). […]

[6] = test system: PC12 mHTTQ103 cells; assay: Trypan blue viability assay; assay type: cell-based, rat; settings: 3 μM, 24 hours
Experimental: as §1, §2

Compound	Kd [1] [µM]	EC50 ([2]; Rattus norvegicus, PC-12, read-out: EC50) [µM]	Max Viability (%) [2] [%]	reversibility of binding to PDIa C56S after 2.7 mM DTT [3]	Solubility [4] [mM]	cellular ROS (CellROX Orange flow cytometry) [5]	protection from mHTT in trypan blue viability assay [6]
O=c1[nH]sc2ccccc12 [BIT, benzoisothiazolone, reference compound]	0.143	0.362	66	bind reversibly to C53	100 (≈ 15.1 mg/mL)		
O=C(C1CC1)N1CCN(Cn2oc3ccccc3c2=O)CC1 [OxyLOC14]						did not decrease ROS	did not show any protection from mHTT
NC(=O)CI [iodoacetamide]				irreversible			
